Entries after “also recorded” stand apart in the source; their conditions may differ. Read-outs that look alike come from different tables or passages of the source.

In data set [1] the target is kinase substrate domain (MidT) fused to the omega subunit of RNA polymerase (RpoZ), no protease recognition site in the linker (UniProt P0A800).
In data set [2] the target is T1, PTP1B (Homo sapiens, UniProt P18031).
T1 sequence (P18031 1-321): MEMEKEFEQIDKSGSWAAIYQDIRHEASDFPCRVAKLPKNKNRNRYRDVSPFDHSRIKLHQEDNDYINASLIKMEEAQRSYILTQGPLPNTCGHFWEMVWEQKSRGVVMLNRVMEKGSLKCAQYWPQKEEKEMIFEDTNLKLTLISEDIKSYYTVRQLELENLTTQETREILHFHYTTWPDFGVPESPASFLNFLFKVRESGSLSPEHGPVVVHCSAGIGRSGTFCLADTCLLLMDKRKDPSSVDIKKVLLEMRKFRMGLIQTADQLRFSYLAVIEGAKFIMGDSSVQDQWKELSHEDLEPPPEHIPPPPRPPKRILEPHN
Briefly: PTP1B-catalyzed hydrolysis of p-nitrophenyl phosphate (pNPP), in vitro kinetic assay. The data set is classed as biochemical. The settings on record: for Ki: PTP1B1-321; for inhibition of PTP1B activity on pNPP relative to himachalol: 50 nM PTP1B, 5 mM pNPP, 2% or 10% DMSO. As for the experimental part:
PTP1B was purified as described previously. Briefly, the E. coli BL21 (DE3) cells were transformed with a pET21b vector containing the catalytic domain of PTP1B (residues 1-321) modified with a 6× polyhistidine tag on its C-terminus. The cells were grown in 1-L cultures to an OD600 of 0.3-0.6 (37° C., 225 RPM), induced with 500 μM IPTG, and grown at 22° C. for 20 hours. The cells were lysed with B-PERII, and purified PTP1B by using desalting, nickel affinity, and anion exchange chromatography (HiPrep 26/10, HisTrap HP, and HiPrep Q HP, respectively; GE Healthcare). The final protein was stored (50 μM) in HEPES buffer (50 mM, pH 7.5, 0.5 mM TCEP) in 20% glycerol at −80° C.
(§1) Inhibition was examined by FPP by measuring its influence on PTP1B-catalyzed hydrolysis of p-nitrophenylphosphate (pNPP). Briefly, 100-μL reactions were prepared comprising 50 nM PTP1B, 0.167-20 mM pNPP, and 75-150 μM terpenoids in 50 mM HEPES (pH=7.3) with 50 mM TCEP, 50 μg/mL BSA, and 2-10% DMSO. The reactions were initiated by adding pNPP, and the production of p-nitrophenol (pNP) was monitored by measuring absorbance at 405 nm every 10 s for 5 min (SpectraMax iD3 plate reader). When necessary, the solubility of the terpenoids in individual wells were assessed by plotting the A405 values for each well—including a no-inhibitor well—in a single read.
Kinetic data was analyzed by using a custom Matlab script supplemented with a user-generated standard curve (e.g., a plot of absorbance at 405 nm vs. pNP concentration in μM, FIG. 15). This script removes datapoints outside of (i) the linear range of the standard curve and/or (ii) the initial rate regime, and it excludes datasets that contain fewer than 10 datapoints after these processing steps. The all datasets were fit using linear regression with Matlab's backslash operator. To determine the half maximal inhibitory concentration (IC50) of himachalol, kinetic models were evaluated by fitting them to standard models of inhibition (e.g., […], noncompetitive, […], and mixed inhibition). Briefly, the procedure included: (i) fitting an initial-rate measurements of pNPP hydrolysis with and without inhibitors, (ii) using the Akaike's Information Criterion (AIC) to compare the best-fit single parameter model to each alternative single-parameter model and accepting the “best-fit” model when the difference in AIC (Δi) exceeded 5 for all comparisons (when this criterion was not met, it was deemed that two or more single-parameter models may be indistinguishable), and (iii) using an F-test to compare a mixed inhibition model to the best-fit single-parameter model and accepting the mixed model if p<0.05. […] The MATLAB function “nlparci” was used to determine the confidence intervals of kinetic parameters, and those intervals were propagated to estimate confidence intervals for each IC50.
Inhibition by FPP, a costly reagent, was examined with three modifications of the above assay: (i) pNPP concentration was held constant (5 mM). (ii) The 10% DMSO was replaced with 10% of a mixture of methanol: 10 mM NH4OH (7:3). (FPP was purchased as a 1.1 mg/mL solution in methanol: 10 mM NH4OH (7:3)). (ii) IC50 was estimated by using a linear fit to the initial rate data; 95% confidence intervals were propagated on the regression parameters generated using Matlab's “coefCI function”. This approach, which reflects the limited number of measurements afforded by the FPP stock (measurements which include very high and very low initial rates), may result in a greater error than a more standard approach for estimating IC50 (e.g., 4-parameter logistic curves) but nonetheless provides an order of magnitude estimate of potency.

Data set [3] concerns the target T1, PTP1B. Nature of the data set: fluorescence-based binding isotherms for BBR. More on the design: binding of BBR to PTP1B in the presence of amorphadiene: dose or concentration left out as unconfirmed. The settings on record: for ΔFmax of BBR binding isotherm: ±SE. The text has this:
(§2) Error bars denote standard error for n=3 technical replicates. […] Error bars denote standard deviation for n=3 technical replicates.

Data set [4] deals with T1, PTP1B. Briefly: melting temperatures determined with differential scanning fluorimetry. It counts as binding. As to conditions: n=3.
From the text: as §2

The next data set concerns the target 3CLpro (Severe acute respiratory syndrome coronavirus 2, UniProt P0DTD1). Briefly: 3CLpro-mediated hydrolysis of FRET peptide Mca-[…](Dnp)K. It counts as biochemical, SARS-COV-2. The source says:
Förster resonance energy transfer (FRET) peptides provide a facile means of assaying protease inhibitors. These peptides contain a fluorophore and a quencher separated by a protease recognition domain; peptide cleavage separates the fluorophore and quencher and increases fluorescence.
For 3CLpro, a commercially available substrate was used: Mca-[…](Dnp)K (SEQ ID NO: 1), where Mca ((methoxycoumarin-4-yl) acetyl) was the fluorophore and 2,4-dinitrophenyl (Dnp) was the quencher. Using this assay, inhibition by eucalyptol and α-bisabolol (FIGS. 30B-30C, FIG. 56) was examined.

In a further data set the target is SARS-COV-2 3CLpro (Severe acute respiratory syndrome coronavirus 2, UniProt P0DTD1). Briefly: 3CLpro-catalyzed proteolysis of fluorogenic peptide substrate TSAVLQ_AFC. The data set is classed as biochemical. The settings on record: mean and standard error.
Data set [5] is described as follows: solubility of terpenoids in kinetic assay wells (A405). The data set is classed as physicochemical. How it is done: as §1
For data set [6], the target named is RpoZ-MidT fusion with the HIV-1 protease recognition sequence in the linker (number of flanking alanines not stated) (UniProt P0A800).
Data set [7] concerns the target RpoZ-MidT fusion with AAAA_Ubiquitin_AAAA added to the linker (UniProt P0A800).
The target of data set [8] is RpoZ-MidT fusion with the 3CLpro recognition sequence in the linker (number of flanking alanines not stated) (UniProt P0A800).
In data set [9] the target is RpoZ-MidT fusion with the PLpro recognition site LRGG in the linker (UniProt P0A800).
Data set [10] concerns the target RpoZ-MidT fusion with the DENVpro/WNVpro recognition site in the linker (UniProt P0A800).
The target of data set [11] is RpoZ-MidT fusion with the HIV-1 protease recognition sequence in the linker (number of flanking alanines not stated), P0A800.
Data set [12] concerns the target RpoZ-MidT fusion with the 3CLpro recognition sequence in the linker (number of flanking alanines not stated), P0A800.

Sequence of RpoZ-MidT fusion with the HIV-1 protease recognition sequence in the linker (number of flanking alanines not stated), P0A800 (P0A800 whole entry, looked up, the tested form may be a part): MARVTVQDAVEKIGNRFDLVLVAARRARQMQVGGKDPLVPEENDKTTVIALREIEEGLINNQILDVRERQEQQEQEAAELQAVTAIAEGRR
Sequence of RpoZ-MidT fusion with the 3CLpro recognition sequence in the linker (number of flanking alanines not stated), P0A800 (P0A800 whole entry, looked up, the tested form may be a part): as above
Sequence of RpoZ-MidT fusion with the DENVpro/WNVpro recognition site in the linker (P0A800 whole entry, looked up, the tested form may be a part): as above
Sequence of RpoZ-MidT fusion with the HIV-1 protease recognition sequence in the linker (number of flanking alanines not stated) (P0A800 whole entry, looked up, the tested form may be a part): as above
Sequence of RpoZ-MidT fusion with the PLpro recognition site LRGG in the linker (P0A800 whole entry, looked up, the tested form may be a part): as above
Sequence of RpoZ-MidT fusion with AAAA_Ubiquitin_AAAA added to the linker (P0A800 whole entry, looked up, the tested form may be a part): as above
Sequence of kinase substrate domain (MidT) fused to the omega subunit of RNA polymerase (RpoZ), no protease recognition site in the linker (P0A800 whole entry, looked up, the tested form may be a part): as above
Sequence of RpoZ-MidT fusion with the 3CLpro recognition sequence in the linker (number of flanking alanines not stated) (P0A800 whole entry, looked up, the tested form may be a part): as above

Take “3-chymotrypsin-like protease (3CLpro) of SARS-CoV-2”: the “dynamic range (DR, the change in luminescence caused by protease expression)” value in data set [1] was 10.7±1.2 vs. 6.3±0.9.
As for `CC(C)=CCC/C(C)=C/CC/C(C)=C/CO[P@@](=O)(O)OP(=O)(O)O` (stereo in doubt) [FPP, farnesyl pyrophosphate], the IC50 at PTP1B [2] ([PTP1B]=50 nM, [pNPP]=5 mM, linear fit, rough estimate, read-out: IC50 for PTP1B) is approximately 200 µM.
Regarding `CC1=C[C@@H]2C(=C(C)CC[C@H]2C(C)C)CC1` [(+)-8-cadinene], the IC50 at PTP1B [2] (major product of terpene synthase A0A0C9VSL7, error 95 CI, read-out: IC50 (PTP1B), estimated) was 165 µM.
Take `CCc1oc2cc(S(=O)(=O)Nc3ccc(S(=O)(=O)Nc4nccs4)cc3)ccc2c1C(=O)c1cc(Br)c(O)c(Br)c1` [BBR, 3-(3,5-dibromo-4-hydroxybenzoyl)-2-ethyl-N-[4-[(2-thiazolylamino)sulfonyl]phenyl]-6-benzofuransulfonamide]: the “ΔFmax of BBR binding isotherm” value at PTP1B [3] (BBR alone) stood at 227000±13000; at PTP1B [3] (BBR with AD), 195000±12000; on PTP1B [3] (BBR with TCS401), 94000±2000. The “binding of BBR to PTP1B in the presence of amorphadiene” value on PTP1B [3] (presence of amorphadiene) was “not significantly disrupted”. Moreover, on PTP1B [4], the “effect on melting temperature (stability) of PTP1B” value (“effect on melting temperature” below) is “destabilize PTP1B”.
As to `Cc1cc(-c2c3ccccc3c(Br)c3sc(C)c(C)c23)cc(C)c1O[C@H](Cc1ccccc1)C(=O)O` [Ertiprotafib], the “effect on melting temperature” value at PTP1B [4] is reported as “destabilize PTP1B”.
Still for that read-out and setting: next, `O=C(O)C(=O)Nc1sc2c(c1C(=O)O)CCNC2` [TCS401]: “do not”.
In the case of `C=C(C)[C@@H]1CC[C@@H](C)[C@@H]2CCC(C)=C[C@@H]21` [amorphadiene], at PTP1B [2], the “selectivity PTP1B versus TCPTP” value is recorded as “more potent inhibitor of PTP1B than TCPTP”. Moreover, the “effect on melting temperature” value at PTP1B [4] is given as “do not”.
Take `CC12CCC(CC1)C(C)(C)O2` [eucalyptol]: on 3CLpro (FRET peptide, FIG. 56), the “inhibitory effect on 3CLpro” value was “no inhibitory effect; also recorded: not an inhibitor”.
For the molecule `CC1=C[C@H]2[C@@H](CC1)[C@](C)(O)CCCC2(C)C` [himachalol], the Ki at PTP1B [2] (fit of competitive model, read-out: Ki, competitive model) is 24.4 µM; on PTP1B [2] (fit of mixed model, read-out: Ki,c, mixed model), 161 µM; at PTP1B [2] (fit of mixed model, read-out: Ki,u, mixed model) it was 305 µM; at PTP1B [2] (fit of noncompetitive model, marked *, read-out: Ki, noncompetitive model (best fit)), 280 µM; at PTP1B [2] (fit of uncompetitive model, read-out: Ki, uncompetitive model), 253 µM. Moreover, the IC50 at PTP1B [2] (PTP1B-catalyzed hydrolysis of pNPP, estimated from best-fit kinetic model at 20 mM pNPP, read-out: IC50 for PTP1B) was 280 ± 59 µM.
At SARS-COV-2 3CLpro, `CC(C)=CCC=C(C)C1CC=C(C)CC1` (stereo not drawn) [α-bisabolene] came in with an IC50 of 186 ± 12 µM.
`CC1=C[C@H]2C(=C(C)CCCC2(C)C)CC1` [β-himachalene]: the “inhibition of PTP1B activity on pNPP relative to himachalol” value at PTP1B [2] was “less inhibitory”. In data set [5], the “solubility in kinetic assay” value was “low solubilities”.
Regarding `C=C1C=CC(C)(C)CCCC(C)=CCC1` [γ-humulene], the “inhibition of PTP1B activity on pNPP relative to himachalol” value on PTP1B [2] was “less inhibitory”. Also, the “solubility in kinetic assay” value in [5] (precluded IC50 estimates) was “low solubilities”.
Consider HIV-1 protease, for which the “LuxAB luminescence response to protease overexpression” value in [6] was “HIVpro appeared functional with all sites, which was behavior consistent with its reported promiscuity”; in data set [7] it was “HIVpro appeared functional with all sites, which was behavior consistent with its reported promiscuity”; in data set [8], “HIVpro appeared functional with all sites, which was behavior consistent with its reported promiscuity”; in [9], “HIVpro appeared functional with all sites, which was behavior consistent with its reported promiscuity”.
In the case of “Non-structural protein 2B-3 protease complex from Dengue virus 2 (DENV2 NS2B-NS3)”, the “LuxAB luminescence screen of proteases against recognition sites” value in [10] was “WNVpro and DNVpro showed no activity in initial screens”.
Same read-out and setting: next, “Non-structural protein 2B-3 protease complex from West Nile Virus (WNV NS2B-NS3)”: “WNVpro and DNVpro showed no activity in initial screens”.
On to α-bisabolol, for which the IC50 against SARS-COV-2 3CLpro is 30 to 80 µM; at 3CLpro (FRET / fluorogenic peptide, mixture containing α-bisabolol, read-out: IC50 for 3CLpro) it was 3.33 µM; on 3CLpro (fit to percent inhibition, FIG. 30C, read-out: half-maximal inhibitory concentration (IC50) for 3CLpro), approximately 3 µM.

B1: protein tyrosine phosphatase 1B (PTP1B), catalytic domain 1-321 (protein)
chain: MEMEKEFEQIDKSGSWAAIYQDIRHEASDFPCRVAKLPKNKNRNRYRDVSPFDHSRIKLHQEDNDYINASLIKMEEAQRSYILTQGPLPNTCGHFWEMVWEQKSRGVVMLNRVMEKGSLKCAQYWPQKEEKEMIFEDTNLKLTLISEDIKSYYTVRQLELENLTTQETREILHFHYTTWPDFGVPESPASFLNFLFKVRESGSLSPEHGPVVVHCSAGIGRSGTFCLADTCLLLMDKRKDPSSVDIKKVLLEMRKFRMGLIQTADQLRFSYLAVIEGAKFIMGDSSVQDQWKELSHEDLEPPPEHIPPPPRPPKRILEPHN
As for B1, the “dynamic range of LuxAB luminescence between active and inactive PTP1B” value in data set [11] was “retained the desired B2H activity (e.g., PTP1B inactivation increased luminescence) at a 4- to 5-fold dynamic range”; in [12], “retained the desired B2H activity (e.g., PTP1B inactivation increased luminescence) at a 4- to 5-fold dynamic range”.
